Measurements published in PMC10507085, “Pharmacological inhibition of TBK1/IKKε blunts immunopathology in a murine model of SARS-CoV-2 infection” (Nature Communications, 2023).

Legend:
Assay in all cases: biochemical
Set-up in all cases: KINOMEscan competition binding, DNA-tagged kinase against immobilised ligand, qPCR read-out
Settings in all cases: read-out: Percent Control
[1] = molecular target: T1, ABL1-phosphorylated (Homo sapiens, UniProt P00519)
T1 construct: phosphorylated

[2] = molecular target: T2, ADCK4 (Homo sapiens, UniProt Q96D53)
T2 construct: gene COQ8B

[3] = molecular target: CDK9 (Homo sapiens, UniProt P50750)
Chain of CDK9 (P50750 whole entry): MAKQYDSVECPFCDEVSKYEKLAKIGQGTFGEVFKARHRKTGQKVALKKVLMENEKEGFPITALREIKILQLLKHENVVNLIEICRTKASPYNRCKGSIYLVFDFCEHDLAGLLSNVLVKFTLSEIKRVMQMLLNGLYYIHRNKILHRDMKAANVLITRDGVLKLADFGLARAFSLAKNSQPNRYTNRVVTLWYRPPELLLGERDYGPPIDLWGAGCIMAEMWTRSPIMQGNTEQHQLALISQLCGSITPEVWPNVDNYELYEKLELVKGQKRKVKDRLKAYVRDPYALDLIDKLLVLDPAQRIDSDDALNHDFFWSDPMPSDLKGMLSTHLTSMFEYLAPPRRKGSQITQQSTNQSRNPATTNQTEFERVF

[4] = molecular target: EPHB1 (Homo sapiens, UniProt P54762)
[5] = molecular target: FGFR1 (Homo sapiens, UniProt P11362)
Chain of FGFR1 (P11362 whole entry): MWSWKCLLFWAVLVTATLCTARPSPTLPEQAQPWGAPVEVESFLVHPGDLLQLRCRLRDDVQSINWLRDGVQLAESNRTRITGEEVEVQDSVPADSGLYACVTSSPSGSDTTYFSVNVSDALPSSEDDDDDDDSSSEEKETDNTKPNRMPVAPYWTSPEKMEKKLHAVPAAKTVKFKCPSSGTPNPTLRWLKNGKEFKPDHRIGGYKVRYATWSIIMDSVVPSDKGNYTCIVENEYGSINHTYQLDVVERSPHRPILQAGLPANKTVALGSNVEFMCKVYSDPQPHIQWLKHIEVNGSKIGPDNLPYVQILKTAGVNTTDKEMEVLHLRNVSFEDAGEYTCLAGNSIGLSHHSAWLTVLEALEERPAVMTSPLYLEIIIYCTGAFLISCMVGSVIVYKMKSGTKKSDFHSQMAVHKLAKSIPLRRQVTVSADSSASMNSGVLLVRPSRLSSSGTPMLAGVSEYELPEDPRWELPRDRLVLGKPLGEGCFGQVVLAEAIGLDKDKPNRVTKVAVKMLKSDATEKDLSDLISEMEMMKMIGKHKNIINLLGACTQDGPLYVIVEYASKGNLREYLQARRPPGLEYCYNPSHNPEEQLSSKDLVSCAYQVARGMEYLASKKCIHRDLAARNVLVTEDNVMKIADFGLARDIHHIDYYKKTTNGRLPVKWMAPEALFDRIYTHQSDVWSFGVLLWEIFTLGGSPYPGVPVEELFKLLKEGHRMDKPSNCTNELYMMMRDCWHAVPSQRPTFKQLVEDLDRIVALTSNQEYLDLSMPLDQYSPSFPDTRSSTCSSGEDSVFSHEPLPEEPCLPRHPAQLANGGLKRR

[6] = molecular target: GSK3B (Homo sapiens, UniProt P49841)
[7] = molecular target: IGF1R (Homo sapiens, UniProt P08069)
[8] = molecular target: MAP2K4 (Homo sapiens, UniProt P45985)
Chain of MAP2K4 (P45985 whole entry): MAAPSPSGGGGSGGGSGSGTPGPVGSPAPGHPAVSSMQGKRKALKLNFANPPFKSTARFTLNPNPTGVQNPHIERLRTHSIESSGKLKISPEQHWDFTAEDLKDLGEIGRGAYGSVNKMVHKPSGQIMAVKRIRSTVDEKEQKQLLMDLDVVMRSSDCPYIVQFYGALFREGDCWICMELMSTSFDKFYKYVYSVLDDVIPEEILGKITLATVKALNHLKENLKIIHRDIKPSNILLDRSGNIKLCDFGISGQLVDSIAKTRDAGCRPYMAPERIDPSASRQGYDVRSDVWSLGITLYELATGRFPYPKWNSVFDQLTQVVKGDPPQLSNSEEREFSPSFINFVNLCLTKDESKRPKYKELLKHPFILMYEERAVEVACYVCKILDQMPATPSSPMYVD

[9] = molecular target: MAP3K11 (Homo sapiens, UniProt Q16584)
Chain of MAP3K11 (Q16584 whole entry): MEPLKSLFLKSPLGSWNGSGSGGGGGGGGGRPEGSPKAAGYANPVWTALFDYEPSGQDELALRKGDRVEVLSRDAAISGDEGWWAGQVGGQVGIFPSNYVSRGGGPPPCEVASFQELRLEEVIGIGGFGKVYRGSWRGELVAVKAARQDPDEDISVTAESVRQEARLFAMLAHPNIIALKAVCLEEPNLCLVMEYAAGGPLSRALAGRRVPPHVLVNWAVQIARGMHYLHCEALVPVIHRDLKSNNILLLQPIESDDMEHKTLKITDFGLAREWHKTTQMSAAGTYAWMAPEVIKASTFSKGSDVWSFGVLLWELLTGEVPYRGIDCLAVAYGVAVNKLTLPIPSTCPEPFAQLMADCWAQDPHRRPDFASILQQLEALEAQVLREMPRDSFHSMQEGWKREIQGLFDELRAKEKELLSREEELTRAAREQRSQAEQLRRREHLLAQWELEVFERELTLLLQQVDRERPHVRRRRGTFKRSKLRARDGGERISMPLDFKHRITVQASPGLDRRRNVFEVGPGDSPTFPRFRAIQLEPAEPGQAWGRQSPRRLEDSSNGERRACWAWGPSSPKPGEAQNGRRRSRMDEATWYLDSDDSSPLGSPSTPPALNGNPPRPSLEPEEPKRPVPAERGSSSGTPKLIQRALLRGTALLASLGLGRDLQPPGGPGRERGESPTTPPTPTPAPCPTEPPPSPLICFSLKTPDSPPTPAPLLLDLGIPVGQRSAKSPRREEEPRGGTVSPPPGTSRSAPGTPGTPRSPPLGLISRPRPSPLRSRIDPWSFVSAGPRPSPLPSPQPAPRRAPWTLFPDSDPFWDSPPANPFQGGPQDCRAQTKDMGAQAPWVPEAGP

[10] = molecular target: MAP3K6 (Homo sapiens, UniProt O95382)
[11] = molecular target: MAPK9 (Homo sapiens, UniProt P45984)
[12] = molecular target: MAPKAPK2 (Homo sapiens, UniProt P49137)
[13] = molecular target: PAK3 (Homo sapiens, UniProt O75914)
[14] = molecular target: PKN2 (Homo sapiens, UniProt Q16513)
[15] = molecular target: PRKD2 (Homo sapiens, UniProt Q9BZL6)
Chain of PRKD2 (Q9BZL6 whole entry): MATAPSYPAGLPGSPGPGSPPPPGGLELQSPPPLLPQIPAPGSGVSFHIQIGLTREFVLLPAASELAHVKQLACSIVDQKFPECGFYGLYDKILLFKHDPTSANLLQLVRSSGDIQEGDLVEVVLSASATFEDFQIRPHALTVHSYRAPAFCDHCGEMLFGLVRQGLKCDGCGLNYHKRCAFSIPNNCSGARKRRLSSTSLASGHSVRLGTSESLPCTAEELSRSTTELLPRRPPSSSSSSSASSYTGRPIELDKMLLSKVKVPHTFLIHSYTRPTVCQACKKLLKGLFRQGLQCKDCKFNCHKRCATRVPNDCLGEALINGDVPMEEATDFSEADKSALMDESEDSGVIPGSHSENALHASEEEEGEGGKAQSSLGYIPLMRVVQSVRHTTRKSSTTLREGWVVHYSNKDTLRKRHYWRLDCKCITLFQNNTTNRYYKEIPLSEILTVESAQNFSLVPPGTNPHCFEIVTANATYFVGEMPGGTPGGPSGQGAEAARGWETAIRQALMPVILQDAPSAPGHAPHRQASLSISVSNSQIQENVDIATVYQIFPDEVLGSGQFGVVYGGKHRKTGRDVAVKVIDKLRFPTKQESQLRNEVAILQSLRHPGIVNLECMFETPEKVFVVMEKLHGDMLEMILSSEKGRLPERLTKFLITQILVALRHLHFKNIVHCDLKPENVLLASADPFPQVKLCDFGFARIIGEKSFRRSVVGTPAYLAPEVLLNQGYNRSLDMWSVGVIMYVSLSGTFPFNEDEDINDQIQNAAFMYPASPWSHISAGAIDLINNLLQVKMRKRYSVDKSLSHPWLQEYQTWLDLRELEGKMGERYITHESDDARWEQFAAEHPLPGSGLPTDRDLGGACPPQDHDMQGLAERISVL

[16] = molecular target: SGK1 (Homo sapiens, UniProt O00141)
[17] = molecular target: SRMS (Homo sapiens, UniProt Q9H3Y6)
[18] = molecular target: TEK (Homo sapiens, UniProt Q02763)
[19] = molecular target: TGFBR2 (Homo sapiens, UniProt P37173)
Chain of TGFBR2 (P37173 whole entry): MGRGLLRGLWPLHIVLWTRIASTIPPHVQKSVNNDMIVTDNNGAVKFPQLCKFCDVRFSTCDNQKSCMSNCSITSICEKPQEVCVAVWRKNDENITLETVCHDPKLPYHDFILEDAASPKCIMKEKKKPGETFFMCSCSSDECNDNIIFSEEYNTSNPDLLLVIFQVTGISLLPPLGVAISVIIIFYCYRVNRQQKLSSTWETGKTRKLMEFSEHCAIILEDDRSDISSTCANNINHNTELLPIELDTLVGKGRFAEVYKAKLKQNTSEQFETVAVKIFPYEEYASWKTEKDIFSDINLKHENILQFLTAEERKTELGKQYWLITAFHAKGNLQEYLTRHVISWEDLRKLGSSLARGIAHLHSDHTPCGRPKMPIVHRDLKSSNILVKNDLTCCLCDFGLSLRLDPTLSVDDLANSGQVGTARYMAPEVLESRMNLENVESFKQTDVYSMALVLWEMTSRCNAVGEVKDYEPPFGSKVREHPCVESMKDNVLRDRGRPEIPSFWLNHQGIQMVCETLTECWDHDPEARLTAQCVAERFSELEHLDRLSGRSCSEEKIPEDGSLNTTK

[20] = molecular target: ULK2 (Homo sapiens, UniProt Q8IYT8)
Chain of ULK2 (Q8IYT8 whole entry): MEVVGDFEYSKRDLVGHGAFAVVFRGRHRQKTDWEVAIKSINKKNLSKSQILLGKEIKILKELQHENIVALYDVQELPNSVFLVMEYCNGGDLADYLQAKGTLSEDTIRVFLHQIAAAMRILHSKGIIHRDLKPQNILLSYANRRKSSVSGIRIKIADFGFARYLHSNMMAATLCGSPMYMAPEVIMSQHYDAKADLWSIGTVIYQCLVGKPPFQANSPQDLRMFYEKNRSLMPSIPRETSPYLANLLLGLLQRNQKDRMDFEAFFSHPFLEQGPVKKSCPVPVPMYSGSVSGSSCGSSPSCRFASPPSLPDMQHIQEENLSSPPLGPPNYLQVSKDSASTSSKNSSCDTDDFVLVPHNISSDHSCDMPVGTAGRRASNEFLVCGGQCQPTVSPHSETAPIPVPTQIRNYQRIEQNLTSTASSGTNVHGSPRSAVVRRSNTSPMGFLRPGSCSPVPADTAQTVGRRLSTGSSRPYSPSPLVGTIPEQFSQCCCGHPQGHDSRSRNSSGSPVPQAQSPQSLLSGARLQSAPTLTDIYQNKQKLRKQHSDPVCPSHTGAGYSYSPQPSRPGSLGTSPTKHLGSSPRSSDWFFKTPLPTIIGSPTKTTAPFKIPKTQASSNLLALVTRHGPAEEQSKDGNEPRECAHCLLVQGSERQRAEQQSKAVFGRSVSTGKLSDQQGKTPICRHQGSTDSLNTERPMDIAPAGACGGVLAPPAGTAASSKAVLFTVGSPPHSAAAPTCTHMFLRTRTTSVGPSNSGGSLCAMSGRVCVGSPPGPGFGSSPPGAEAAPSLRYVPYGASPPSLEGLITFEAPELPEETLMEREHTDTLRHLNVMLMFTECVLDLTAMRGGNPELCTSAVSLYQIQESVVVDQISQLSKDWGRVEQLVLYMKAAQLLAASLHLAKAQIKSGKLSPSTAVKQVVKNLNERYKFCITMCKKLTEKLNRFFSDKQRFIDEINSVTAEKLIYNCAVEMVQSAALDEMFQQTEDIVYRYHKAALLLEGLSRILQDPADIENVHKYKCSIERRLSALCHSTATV

Oc1ccc(C2=Cc3ccc(O)cc3OC2)cc1 [compound 1, idronoxil]
remaining binding at 10 µM [1]: 35%
remaining binding at 10 µM [2]: 81%
remaining binding at 10 µM [3]: 91%
remaining binding at 10 µM [4]: 84%
remaining binding at 10 µM [5]: 92%
remaining binding at 10 µM [6]: 92%
remaining binding at 10 µM [7]: 84%
remaining binding at 10 µM [8]: 91%
remaining binding at 10 µM [9]: 63%
remaining binding at 10 µM [10]: 88%
remaining binding at 10 µM [11]: 93%
remaining binding at 10 µM [12]: 65%
remaining binding at 10 µM [13]: 100%
remaining binding at 10 µM [14]: 70%
remaining binding at 10 µM [15]: 94%
remaining binding at 10 µM [16]: 77%
remaining binding at 10 µM [17]: 68%
remaining binding at 10 µM [18]: 96%
remaining binding at 10 µM [19]: 100%
remaining binding at 10 µM [20]: 100%
